From patent US20110212080A1, “UREA DERIVATIVES AS ANTIBACTERIAL AGENTS” (priority 2008, published 2011)

Biological target: T1, LpxC enzyme (Escherichia coli, UniProt P0A725)
T1 sequence (P0A725 1-305): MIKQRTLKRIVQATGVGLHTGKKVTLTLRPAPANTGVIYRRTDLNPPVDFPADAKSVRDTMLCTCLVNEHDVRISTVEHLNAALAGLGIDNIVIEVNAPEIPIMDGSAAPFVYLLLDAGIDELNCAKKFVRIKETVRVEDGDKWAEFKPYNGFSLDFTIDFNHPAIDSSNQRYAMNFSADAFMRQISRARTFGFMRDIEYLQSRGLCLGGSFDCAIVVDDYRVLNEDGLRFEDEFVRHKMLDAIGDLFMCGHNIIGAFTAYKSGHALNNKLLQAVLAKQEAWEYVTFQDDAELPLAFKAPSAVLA
Assay: standard LpxC assay (RapidFire high-throughput mass spectrometry)
Type: biochemical
Conditions: 1.0 μM UDP-3-O-(R-3-hydroxymyristoyl)-N-acetylglucosamine, 60 minutes at room temperature, 2% DMSO; read-out: E.coli IC50
Experimental: The standard LpxC assay consists of […] LpxC enzyme, 1.0 μM UDP-3-O-(R-3-hydroxymyristoyl)-N-acetylglucosamine, and test compound, in assay buffer and 2% DMSO. Assay buffer is comprised of 25 mM HEPES, pH 7.3, 150 mM NaCl, 2.0 mM DTT, and 0.01% BSA. The enzyme reaction is carried out in a 96-well assay plate, in a final volume of 102 μL. Solutions of rest compounds are prepared in 100% DMSO. Reaction additions, in order, are (1) 2.0 μL compound solution, (2) 80 μL of assay buffer, (3) 10 μL of 10 μM UDP-3-O-(R-3-hydroxymyristoyl)-N-acetylgucosamine (in assay buffer) and, (4) 10 μL of LpxC enzyme (20 nM in assay buffer) to initiate the reaction. In positive control reactions, addition (1) has 2.0 μL of 100% DMSO (without compound); these reactions are used as the total signal (TSB) value. Reactions are incubated at room temperature for 60 minutes when 10 μL of 1 N HCl is added to stop the reaction. The plate is shaken by hand for 10 seconds to ensure complete quenching. […]
The concentrations of substrate and product in the reaction mixtures are determined with BioTrove's proprietary RapidFire™ high-throughput mass spectrometry (HTMS). […] The mass spectrometry peak areas of the substrate and product are measured to determine the concentration of these analytes. […] Percent inhibition, % I, in test samples is determined from the following equation: […]

SMILES | IC50
C[C@@H](O)[C@@H](NC(=O)N1CCCC(c2ccc(C#Cc3ccccc3)cc2)C1)C(=O)NO (some centres unmarked) [Compound 41] | 50 to 500 nM
C[C@@H](NC(=O)N[C@@H](C(=O)NO)[C@@H](C)O)c1ccc(-n2cccn2)cc1 [Compound 46] | 5000 to 10000 nM
